Common to all, as to set-up: species or system mice
The test system of assay [1] is ZR-75-1 (Breast Cancer Xenograft). The assay can be described thus: In vivo tumor growth inhibition, ZR-75-1 xenograft. The note with it: 28 days. The source says: (§1) The purpose of the following xenograft tumor inhibition assay is to measure reduction in tumor volume in response to test compound administration.
A further assay relates to PRα (PGR) expression. In words: In vivo target inhibition (IVTI) assay (PGR RT-qPCR assay) in MCF7 tumors. Conditions: MCF7 tumor xenograft, 30 mg/kg orally, for 24 hours. The protocol: The purpose of this IVTI assay is to measure the ability of a test compound (SERD) to inhibit PRα gene expression (transcription) downstream of ERα in xenograft tumors implanted in mice.
Implant female NOD SCID mice (22-25 g) from Envigo RMS, Inc., Madison, Wis. with 5×10e^6 MCF7 ER-positive breast cancer cells (ATCC, # HTB-22) subcutaneously in the right flank region in 1:1 HBSS+[…]™ solution (200 μL). Implant a 17-β estradiol pellet (0.18 mg/pellet, 90 day release, from Innovative research) subcutaneously 1 day prior to tumor cell implantation. […] Sacrifice animals using isoflurane anesthesia plus cervical dislocation. Flash freeze tumors and store at −80° C. until processing for RNA isolation and RT-qPCR assay. Collect blood in EDTA tubes, spin down for plasma, and freeze at −80° C. in a 96-well plate. Determine test compound exposures using mass spectrometry.
Pulverize tumors in liquid nitrogen and lyse in 1×RNA lysis buffer (from RNA isolation kits) using Matrix D beads (MP Biomedical, #6913-500) in a FASTPREP-24™ Cell Disrupter machine (MP Biomedical). […] Measure isolated RNA concentration by diluting samples in RNase free water and measuring the absorbance at 260 nm on a plate reader (SpectraMax190). Subtract the average 260 nm absorbance measurement of the blank (RNase free water only) from the 260 nm measurements of all other RNA samples. […]
In general terms: Quantitative PCR measures a nucleic acid by following its amplification.

Assay [2] relates to T47D (Breast Cancer Xenograft). The assay can be described thus: In vivo tumor growth inhibition, T47D xenograft. Conditions: 28 days.
From the text: as §1

Structures are written as SMILES.

With `Oc1ccc2c3c(cnc2c1)-c1ccc(C(F)(F)F)cc1OC3c1ccc(OCCN2CC(CF)C2)cc1` (single isomer, unassigned) [Example 1B, 5-(4-{2-[3-(Fluoromethyl)azetidin-1-yl]ethoxy}phenyl)-8-(trifluoromethyl)-5H-[1]benzopyrano[4,3-c]quinolin-2-ol], the “Delta T/C % or Regression %” value in assay [1] (3 mg/kg oral gavage QD) is 4%; in assay [1] (10 mg/kg oral gavage QD) it was 0%; in assay [1] (30 mg/kg oral gavage QD) it was 19%; in assay [2] (3 mg/kg oral gavage QD), 30%; in assay [2] (10 mg/kg oral gavage QD) it was −11%; in assay [2] (30 mg/kg oral gavage QD), −28%. Moreover, in the assay with PRα (PGR) expression, the “inhibition of PRα (PGR) expression” value is listed as approximately 78%.

The values are drawn from patent publication US10654866B2, “Selective estrogen receptor degraders” (Eli Lilly and Company, priority 2018, dated 2020).
